Measurements: US11020422B2, “Cyclodextrin for the treatment of lysosomal storage diseases” (The United States of America, as represented by the …, priority 2012, dated 2021)
Like-named read-outs stand apart in the source and are kept apart here.

Columns and labels:
NPC1-NSCs [1] = test: Amplex-red cholesterol assay in NPC1 neural stem cells; type: cell-based, human
Protocol: (§1) Amplex-Red Cholesterol Assay—Total cholesterol in patient cells was measured by the Amplex-Red Cholesterol Assay Kit (Invitrogen). The unesterified cholesterol was determined using the same kit without the enzyme […]. Esterified cholesterol was determined as the difference between the total and unesterified cholesterol values. The cells were seeded to black, tissue culture-treated 96-well, 384-well or 1536-well plates at 4000, 1000, 300 cells/well in 100, 20 or 5 μl medium by a Multidrop Combi dispenser (Thermo Scientific, Waltham, Mass.) and cultured for 24 hr. The assay plates were added with compound dilution in DMSO solution using a Pintool station (Klaypsys, San Diego, Calif.) and cultured for 3 days. The cells were washed twice manually for 96-well or 384-well plates or using a centrifugation method in which the inverted plates were placed on a stack of paper towel and centrifuged at 800 rpm for 1 min followed by addition of 7 μl/well PBS (added gently with a 45 degree angled liquid dispenser (Klaypsys). The cholesterol assay mixture from the kit was added at 100, 20 or 2.5 μl/well for 96-well, 384-well or 1536-well plates and incubated for 1 hr at 37° C. The resulted fluorescence intensity was measured with excitation of 560 (±10) and emission of 590 (±10) in a fluorescence plate reader (Tecan, Durham, N.C.).
(§2) Induced pluripotent stem cells (IPSCs) from the NPC1 skin fibroblasts were generated and differentiated into neural stem cells (NPC1-NSCs).

[2] = tested on: fibroblasts derived from patients with lysosomal storage diseases; test: LysoTracker dye staining of enlarged lysosomes; type: cell-based, human; conditions: for concentration needed for significant effect on reduction of enlarged lysosome size: single compound use, skin fibroblasts of nine lysosomal storage diseases
Protocol: (§3) On the experimental day, cells were live-stained with 100 μl/well 50 nM LysoTracker-Red DND-99 dye (Invitrogen, #L-7528) in medium at 37° C. for 1 hr followed by plate washing twice with PBS. The plate was then fixed in 100 μl/well 3.2% formaldehyde for 1 hr and washed for two times with PBS. […] After washing twice with PBS, the plates were stored at 4° C. until imaging analysis. DAPI filter set and TRITC filter set in the Incell2000 imaging plate reader were used to visualize Hoechst nuclear staining and LysoTracker staining, respectively.
FIG. 5. […] To test this hypothesis we measured the ability of delta-T to decrease acidic/lysosomal compartment size as determined by LysoTracker staining in fibroblasts derived from patients with six other diseases. Lysosomal storage occurs in these fibroblasts consists of ceroid/lipofuscin in Batten (CLN2), globotriaosylceramide in Fabry, ceramide in Farber, sphingomyelin in NPA, partially degraded heparan sulfate in Sanfilippo type B, and GM2 ganglioside in Tay-Sachs (Table S1).
The effect of various cyclodextrins, δ-tocopherol, and combinations of cyclodextrins and δ-tocopherol on lipid accumulation and lysosome size in wild-type and lysosomal storage disease fibroblasts (Wolman, Tay-Sach, Fabry, Farber, and MPSIIIB fibroblasts) was determined using Lysotracker assay. In brief, cells were treated with various combinations and concentrations of drugs followed by staining with the Lyso tracker dye which is a basophilic fluorescent probe that accumulates in acidic compartments, i.e. lysosomes, within the cell.

NPC1-NSCs [3] = test: Filipin and Lysotracker staining in NPC1 neural stem cells; type: cell-based, human; conditions: fluorescence microscopy, FIG. 12B
Protocol: as §3, §2

NPC1 skin fibroblasts = test: Cholesterol accumulation (Amplex-red, filipin) and enlarged lysosomes (Lysotracker) in NPC1 skin fibroblasts; type: cell-based, human; conditions: for cholesterol accumulation / ranking order of cholesterol reduction effect: NPC cells
Protocol: as §1

primary NPC fibroblasts = primary NPC fibroblasts / LSD fibroblast; reported; cited from earlier work
[4] = tested on: mouse model of Niemann Pick Type C (NPC) disease; conditions: cited from earlier work
Wolman fibroblasts [5] = test: β-Hexosaminidase (HEXB) release, lysosomal exocytosis; type: cell-based, human; conditions: for exocytosis: cyclodextrins, wild type and Wolman cells, assay not stated; for lysosomal exocytosis as determined by HEXB secretion: Wolman fibroblasts, FIG. 3
Protocol: Measurement of β-Hexosaminidase (HEXB) Release—Fibroblasts were cultured in 24-well plates at 30,000 cells/well in 0.4 ml medium for one day at 37° C. After being washed twice with the assay buffer (DMEM with 2 mM D-mannose 6-phosphate sodium salt), the cells with 0.4 ml/well the assay buffer were incubated at 37° with 0.2 ml/well compound in assay buffer. […] The rest of assay buffer in the 24-well plate was discarded followed by addition of 0.6 ml 1% Triton-X100 in dH2O to lyse the cells. After incubation at 37° C. for 30 min. 6 μl/well cell lysate were added to the 96-well plate with 24 μl assay buffer followed by 90 μl/well 2.25 mM HEXB substrate, 4-Methylumbelliferyl N-acetyl-β-D-glucosaminide (Sigma-Aldrich, #M2133), in a 25 mM citric acid buffer at pH 4.5. The 96-well plate was then measured in the Tecan fluorescence plate reader (Ex=365±20 nm and Em=460±20 nm) after 1 hr incubation at 37° C. and addition of 100 μl/well stop solution (1 M glycine and 1 M NaOH at pH 10.5).
FIG. 3. […] We measured lysosomal exocytosis in delta-T-treated Wolman fibroblasts by determining the activity of beta-hexosaminidase (HEXB), a lysosomal enzyme, in the extracellular medium.
In brief, the level of lysosomal exocytosis was determined by measuring the level of the lysosomal enzyme HEXB secreted into the culture medium following treatment with drug.

Wolman fibroblasts [6] = test: Amplex-Red cholesterol assay in Wolman fibroblasts; type: cell-based, human; conditions: for cholesterol accumulation: cyclodextrins alone, other lysosomal storage disorders (FIG. 1)
Protocol: as §1

Wolman fibroblasts [7] = test: Nile Red staining of neutral lipids in Wolman fibroblasts; conditions: cultured with compound for 3 days
Protocol: Nile-red Staining—The cells were cultured and treated as described above in 96-well plates. On the experimental day, cells were washed two times with PBS and live-stained with 1 μM Nile-red dye solution (prepared in cell culture medium) at 100 μl/well followed by an incubation at 37° C. for 10 min. After washed twice with PBS, the cells were fixed in 3.2% paraformaldehyde in PBS at 100 μl/well 1 μg/ml Hoechst 33342 (Invitrogen) in PBS and incubation at RT for 30 min. The plate was washed twice with PBS and the images were measured in Incell2000 imaging plate reader with a FTTC filter set (Ex=480±20 nm and Ex=525±36 nm) for the neutral lipids (cholesteryl esters and triglycerides) and a DAPI filter set for Hoechst nuclear staining.
(Nile Red) Cells were cultured in the presence of delta tocopherol, alpha tocopherol and MBCD plus in combination for 3 days and then stained for neutral lipid with Nile red.
Wolman fibroblasts were treated with δ-tocopherol, α-tocopherol, methyl-β-cyclodextrin, or combinations of δ-tocopherol and methyl-β-cyclodextrin or α-tocopherol and methyl-β-cyclodextrin. […] To further characterize the effect of treatment on lipid accumulation, treated fibroblasts were evaluated using a Nile Red assay to measure neutral lipid accumulation. […] The Nile Red staining was visualized by fluorescent microscopy.

[8] = tested on: NPC1, Wolman and other lysosome storage disorder fibroblasts; test: Electron microscopy of lysosomal ultrastructure; conditions: Wolman fibroblasts; FIG. 6
Protocol: Electron Microscopy—Fibroblast cells were seeded in 6-well plates at 150,000 cells/well in 5 ml medium and cultured for 1 day in the presence or absence of compounds. Cells were fixed in 2% glutaraldehyde, 0.1 M cacodylate buffer, pH 7.2 for 1 hr at room temperature and then stored at 4° C. until TEM analysis was performed. The cells were post fixed in 1% osmium tetroxide in the same buffer for 1 hour and en bloc stained with 0.5% uranyl acetate in 0.1 M acetate buffer, pH 4.2. The cells were then dehydrated in graded ethanol solutions (35%, 50%, 70%, 95% and 100%) and infiltrated overnight in epoxy resin (Poly/Bed 812, Polysciences). After adding fresh pure resin the cell plates were cured for 72 h in 55° C. After removing the polystyrene plates, suitable areas for thin sectioning were selected, cut out with a jewelry saw and glued onto empty resin stubs. About 70 nm thin sections were cut on an ultramicrotome (Leica EM UC6) and mounted on naked copper grids. The thin sections were double stained (uranyl acetate and lead citrate), examined in a Hitachi H-7650 transmission electron microscope, and images were taken using an AMT CCD camera.
The effects of δ-tocopherol and methyl-β-cyclodextrin on the ultrastructural pathology of lysosomes in lysosome storage disorder cells were investigated by electron microscopy. In brief, following treatment of wild-type and lysosome storage disorder fibroblasts with δ-tocopherol, methyl-β-cyclodextrin, or δ-tocopherol and methyl-β-cyclodextrin, the fibroblasts were fixed and embedded. Thin sections of the embedded cells were then prepared and the ultrastructural pathology was examined by electron microscopy. […] The effects of δ-tocopherol and/or methyl-β-cyclodextrin on the ultrastructural pathology of other lysosome disorder fibroblasts-Farber (FIGS. 7,8 and 10); Tay-Sachs (FIG. 8); Fabry (FIG. 8); Wolman (FIG. 9); NPA (FIG. 9); Batten (FIG. 9); MSIIB (FIG. 9)—were analyzed by electron microscopy.

NPC cells = conditions: NPC / NPC1 cells; reported; cited from earlier work
[9] = NPC1-NSCs, FIG. 12A, read-out: IC50, Amplex-red cholesterol assay

(2-Hydroxypropyl)-beta-cyclodextrin [HBPCD]
potency in NPC1 neuronal cells compared to NPC1 skin fibroblasts (NPC1-NSCs [1]): much more potent | cholesterol accumulation, combination therapy experiment (NPC1-NSCs [1]; 50 μM HBPCD, 10 μM delta-tocopherol, alone or combined, compared with 5 mM HBPCD): did not show the significant cholesterol reduction effect | IC50 (NPC1-NSCs [1]; [9]): 12 µM | ratio of IC50 HBPCD to IC50 delta-tocopherol (NPC1-NSCs [1]; human NPC1 neural stem cells): 3.3 fold | IC50 (NPC1-NSCs [1]; human NPC1 neural stem cells, values given under dosage recommendations, read-out: IC50 on reduction of cholesterol accumulation, Amplex-red cholesterol assay): 50 µM | concentration needed for significant effect on reduction of enlarged lysosome size [2]: 8 mM | reduction of cholesterol accumulation (filipin staining) and enlarged lysosomes (Lysotracker staining) (NPC1-NSCs [3]): better than those of delta-tocopherol | concentration needed for reduction of cholesterol accumulation and enlarged lysosomes (NPC1 skin fibroblasts; NPC1 skin fibroblasts, single use, FIG. 11A): millimolars | lysosomal exocytosis (primary NPC fibroblasts): promote a calcium-dependent lysosomal exocytosis | cholesterol accumulation and neuronal cell loss [4]: reduced cholesterol accumulation and neuronal cell loss

OC[C@H]1O[C@@H]2O[C@H]3[C@H](O)[C@@H](O)[C@@H](O[C@H]4[C@H](O)[C@@H](O)[C@@H](O[C@H]5[C@H](O)[C@@H](O)[C@@H](O[C@H]6[C@H](O)[C@@H](O)[C@@H](O[C@H]7[C@H](O)[C@@H](O)[C@@H](O[C@H]8[C@H](O)[C@@H](O)[C@@H](O[C@H]1[C@H](O)[C@H]2O)O[C@@H]8CO)O[C@@H]7CO)O[C@@H]6CO)O[C@@H]5CO)O[C@@H]4CO)O[C@@H]3CO [beta-CD, β-cyclodextrin]
exocytosis (Wolman fibroblasts [5]): enhance exocytosis | cholesterol accumulation (Wolman fibroblasts [6]): can reduce cholesterol accumulation | cholesterol accumulation (NPC1 skin fibroblasts): can reduce cholesterol accumulation | lysosomal exocytosis (primary NPC fibroblasts): increased exocytosis

Cc1c(C)c2c(c(C)c1O)CC[C@@](C)(CCC[C@H](C)CCC[C@H](C)CCCC(C)C)O2 [α-tocopherol]
lysosomal exocytosis as determined by HEXB secretion (Wolman fibroblasts [5]): significant increases in lysosomal exocytosis | neutral lipid accumulation (Nile red) (Wolman fibroblasts [7]; FIG. 2): failed to show any effect | neutral lipid accumulation (Nile red) (Wolman fibroblasts [7]; FIG. 2, listed as Alpha Tocopherol): not as potent

OC[C@H]1O[C@@H]2O[C@H]3[C@H](O)[C@@H](O)[C@@H](O[C@H]4[C@H](O)[C@@H](O)[C@@H](O[C@H]5[C@H](O)[C@@H](O)[C@@H](O[C@H]6[C@H](O)[C@@H](O)[C@@H](O[C@H]7[C@H](O)[C@@H](O)[C@@H](O[C@H]8[C@H](O)[C@@H](O)[C@@H](O[C@H]9[C@H](O)[C@@H](O)[C@@H](O[C@H]1[C@H](O)[C@H]2O)O[C@@H]9CO)O[C@@H]8CO)O[C@@H]7CO)O[C@@H]6CO)O[C@@H]5CO)O[C@@H]4CO)O[C@@H]3CO [gamma-CD, γ-cyclodextrin]
exocytosis (Wolman fibroblasts [5]): enhance exocytosis | cholesterol accumulation (Wolman fibroblasts [6]): can reduce cholesterol accumulation | cholesterol accumulation (NPC1 skin fibroblasts): can reduce cholesterol accumulation | ranking order of cholesterol reduction effect (NPC1 skin fibroblasts): MBCD>alpha-CD>gamma-CD

COC[C@H]1O[C@@H]2O[C@H]3[C@H](O)[C@@H](OC)[C@@H](O[C@H]4[C@H](O)[C@@H](OC)[C@@H](O[C@H]5[C@H](O)[C@@H](OC)[C@@H](O[C@H]6[C@H](O)[C@@H](OC)[C@@H](O[C@H]7[C@H](O)[C@@H](OC)[C@@H](O[C@H]8[C@H](O)[C@@H](OC)[C@@H](O[C@H]1[C@H](O)[C@H]2OC)O[C@@H]8COC)O[C@@H]7COC)O[C@@H]6COC)O[C@@H]5COC)O[C@@H]4COC)O[C@@H]3COC [MBCD, Heptakis(2,6-di-o-methyl)-beta-cyclodextrin]
lysosomal exocytosis as determined by HEXB secretion (Wolman fibroblasts [5]): significant increases in lysosomal exocytosis | IC50 (NPC1-NSCs [1]; [9]): 10 µM | abnormal lysosomal structures (electron microscopy) [8]: significantly reduced | LysoTracker staining ([2]; NPC1 and Wolman fibroblasts, 40 μM delta-T or 300 μM MBCD): significantly reduced LysoTracker staining | lipid accumulation and lysosome size (Lysotracker) ([2]; Wolman, Tay-Sach, Fabry, Farber, MPSIIIB fibroblasts, FIGS. 5A-5D): reduced lipid accumulation and lysosome size | concentration needed for significant effect on reduction of enlarged lysosome size [2]: 0.3 mM | reduction of cholesterol accumulation (filipin staining) and enlarged lysosomes (Lysotracker staining) (NPC1-NSCs [3]): better than those of delta-tocopherol | reduction in total cholesterol (Wolman fibroblasts [6]; Wolman fibroblasts, FIGS. 1A-1C): significant reduction | reduction in free cholesterol (Wolman fibroblasts [6]; Wolman fibroblasts, FIGS. 1D-1F): significant reduction | cholesterol accumulation (Wolman fibroblasts [6]): most potent | neutral lipid accumulation (Nile red) (Wolman fibroblasts [7]; FIG. 2): reduces accumulation of neutral lipids | neutral lipid accumulation (Nile red) (Wolman fibroblasts [7]; FIG. 2, listed as methyl-β-cyclodextrin): significantly reduced | reduction of cholesterol accumulation and enlarged lysosomes (NPC1 skin fibroblasts; NPC1 skin fibroblasts, 160 μM MBCD alone, 50 μM HBPCD or 20 μM MBCD with 10 μM delta-tocopherol, FIG. 11): almost completely reversed the phenotype | ranking order of cholesterol reduction effect (NPC1 skin fibroblasts): MBCD>alpha-CD>gamma-CD | potency of MBCD relative to HBPCD (NPC1 skin fibroblasts; reduction of cholesterol accumulation and enlarged lysosome size in NPC1 fibroblasts): over 30 fold | cholesterol accumulation and neuronal cell loss [4]: reduced cholesterol accumulation and neuronal cell loss

OC[C@H]1O[C@@H]2O[C@H]3[C@H](O)[C@@H](O)[C@@H](O[C@H]4[C@H](O)[C@@H](O)[C@@H](O[C@H]5[C@H](O)[C@@H](O)[C@@H](O[C@H]6[C@H](O)[C@@H](O)[C@@H](O[C@H]7[C@H](O)[C@@H](O)[C@@H](O[C@H]1[C@H](O)[C@H]2O)O[C@@H]7CO)O[C@@H]6CO)O[C@@H]5CO)O[C@@H]4CO)O[C@@H]3CO [alpha-CD, α-cyclodextrin]
exocytosis (Wolman fibroblasts [5]): enhance exocytosis | cholesterol accumulation (Wolman fibroblasts [6]): can reduce cholesterol accumulation | cholesterol accumulation (NPC1 skin fibroblasts): can reduce cholesterol accumulation | ranking order of cholesterol reduction effect (NPC1 skin fibroblasts): MBCD>alpha-CD>gamma-CD

COc1cc(/C=C/C(=O)CC(=O)/C=C/c2ccc(O)c(OC)c2)ccc1O [curcumin]
cholesterol efflux, accumulation or storage (NPC cells): reduce cholesterol storage
